From US20160102074A1, “SUBSTITUTED AMIDE COMPOUNDS” (PFIZER INC., priority 2014, published 2016) come the findings set out here.

The structures appear in SMILES notation. pIC50: −log10 of the molar value.

Experiment [1] has as its system human PCSK9. In words: Cell Free PCSK9 Assay (PCSK9-luciferase mRNA translation in HeLa lysate). Conditions: PCSK9-luciferase RNA, 30° C. for 45 minutes, top concentration 100 μM. It is filed as biochemical. On the procedure:
As defined herein inhibition of translation of PCSK9 mRNA to PCSK9 protein is determined by the “Cell Free PCSK9 Assay” provided herein in the specification. This “Cell Free PCSK9 Assay” is specific to the production of PCSK9 protein from PCSK9 mRNA and therefore detects inhibitors of this translational process rather than other mechanisms by which PCSK9 protein may be reduced.
In order to eliminate the permeability barrier inherent to the WT7 cell-based assays a cell-free system was also established to assess compound activitiy. A sequence containing the full length human PCSK9 (NCBI reference identifier, NM_174936.3, where coding sequence start annotated at position 363) along with 84 additional 3′ nucleotides, comprising a V5 tag and polylinker followed by an in frame modified firefly luciferase reporter (corresponding to nucleotide positions 283-1929 of pGL3, GenBank reference identifier JN542721.1) was cloned into the pT7CFE1 expression vector (ThermoScientific). The construct was then in-vitro transcribed using the MEGAscript T7 Kit (Life Technologies) and RNA subsequently purified incorporating the MEGAclear Kit (Life Technologies) according to manufacturer's protocols. HeLa cell lysates were prepared following the protocols described by Mikami (reference is Cell-Free Protein Synthesis Systems with Extracts from Cultured Human Cells, S. Mikami, T. Kobayashi and H. Imataka; from Methods in Molecular Biology, vol. 607, pages 43-52, Y. Endo et al. (eds.), Humana Press, 2010) with the following modifications. Cells were grown in a 20 L volume of CD293 medium (Gibco 11765-054) with Glutamax increased to 4 mM, penicillin at 100 U/mL and other additions as previously described by Mikami. Growth was in a 50 L wavebag at a rocker speed of 25 rpm and angle 6.1 with 5% CO2 and 0.2 LPM flow rate with cells harvested at a density of 2-2.5e6/mL. Lysates additionally contained 1 tablet of Roche cOmplete-EDTA protease inhibitors per 50 mL with tris(2-carboxyethyl)phosphine (Biovectra) substituted for dithiothreitol, and were clarified by an additional final centrifugation at 10,000 rpm in a Sorvall SS34 rotor at 4° C. for 10 minutes. Compound screening was performed in 384-well plates in an eleven point, 0.5 log dilution format at a top test compound concentration of 100 μM in a final volume of 0.5% DMSO. In additional to these test compound conditions each screening plate also included wells that contained 100 μM of compound example 16 (as depicted in WO2014170786; N-(3-chloropyridin-2-yl)-N-[(3R)-piperidin-3-yl]-4-(3H-[1,2,3]triazolo[4,5-b]pyridin-3-yl)benzamide) as a positive assay control defined as high percent effect, HPE, as well as wells containing media in 0.5% DMSO as a negative treatment control defined as zero percent effect, ZPE. Compounds were incubated at 30° C. for 45 minutes in a solution containing 0.1 μg of purified, in-vitro transcribed RNA together with the cell-free reaction mixture (consisting of 1.6 mM Mg and 112 mM K salts, 4.6 mM tris(2-carboxyethyl)phosphine (Biovectra), 5.0 μL HeLa lysate, 0.2 μL RNAsin (Promega) and 1.0 μL energy mix (containing 1.25 mM ATP (Sigma), 0.12 mM GTP (Sigma), 20 mM creatine phosphate (Santa Cruz), 60 μg/mL creatine phosphokinase (Sigma), 90 μg/mL tRNA (Sigma) and the 20 amino acids (Life Technologies) at final concentrations described by Mikami) and brought up in water to a final volume of 10 μL in water. Upon assay completion 1 μL from each reaction solution was removed and transferred to a second 384-well Optiplate (Perkin Elmer) containing 24 μL of SteadyGlo (Promega) and signal intensity was measured on the Envision (Perkin Elmer) using the enhanced luminescence protocol. To determine compound IC50 the data for HPE and ZPE control wells were first analyzed and the mean, standard deviation and Z prime calculated for each plate. The test compound data were converted into percent effect, using the ZPE and HPE controls as 0% and 100% activity, respectively, applying Equation 1 above. […]

Experiment [2] concerns human PCSK9. In words: PCSK9 AlphaLISA assay, PCSK9 lowering in WT7 cells. Conditions: WT7 cells (Huh7 stably over-expressing human PCSK9), secreted PCSK9 by AlphaLISA, overnight incubation (16-24 h), top concentration 20 μM; read-out: Cell Based PCSK9 IC50. From the text: PCSK9 Lowering in WT7 Cells
An in-vitro AlphaLISA assay (Perkin Elmer) was developed in order to quantitate the level of PCSK9 secreted into the cell culture media following compound treatment. To detect and measure PCSK9 protein a mouse monoclonal anti-human PCSK9 antibody was coupled to AlphaLISA acceptor beads by an external vendor (Perkin Elmer) and a second rabbit monoclonal anti-human PCSK9 antibody with an epitope distinct from that of the acceptor beads was biotinylated using the EZ link NHS-LC-LC-Biotin kit (Life Technologies #21338). Streptavidin coated-donor beads (Perkin Elmer) are also included in the assay mixture which then binds the biotinylated anti-PCSK9 antibody and in the presence of PCSK9 this donor complex and acceptor beads are brought into close proximity. Upon excitation of the donor beads at 680 nm singlet oxygen molecules are released that trigger an energy transfer cascade within the acceptor beads resolving as a single peak of light emitted at 615 nm. The ability of compound to modulate PCSK9 protein levels in conditioned media by AlphaLISA was assessed in the human hepatocellular carcinoma cell line Huh7, stably over-expressing human PCSK9. This cell line, termed WT7, was established by transfecting Huh7 cells with an in-house modified pcDNA 3.1 (+) Zeo expression vector (Life Technologies) containing the full-length human PCSK9 sequence (NCBI reference identifier, NM_174936.3, where coding sequence start annotated at position 363) and a c-terminal V5 and 6×-His tag. Following plasmid transfection the stable WT7 clone was identified and maintained under Zeocin selection. Compound screening was performed in 384-well plates where WT7 cells were plated at a density of 7500 cells per well in 20 μL of tissue culture media containing compound in an eleven point, 0.5 log dilution format at a high treatment concentration of 20 μM in a final volume of 0.5% DMSO. In additional to these test compound conditions each screening plate also included wells that contained 20 μM puromycin as a positive assay control defined as high percent effect, HPE, as well as wells containing media in 0.5% DMSO as a negative treatment control defined as zero percent effect, ZPE. After overnight compound incubation (16-24 h) the tissue culture media was collected and an aliquot from each sample was transferred to individual wells of a 384-well white Optiplate (Perkin Elmer). The coupled antibodies and donor beads were added to the assay plates in a buffer composed of 30 mM Tris pH 7.4, 0.02% Tween-20 and 0.02% Casein. Anti-PCSK9 acceptor beads (final concentration of 10 μg/mL) and anti-PCSK9 biotinylated antibody (final concentration of 3 nM) were added and incubated for 30 minutes at room temperature followed by the addition of the streptavidin donor beads (final concentration 40 μg/mL) for an additional 60 minutes. Additionally a standard curve was generated where AlphaLISA reagents were incubated in wells spiked with recombinant human PCSK9 diluted in tissue culture media from 5000 ng/mL to 0.6 ng/mL. Following incubation with AlphaLISA reagents plates were read on an EnVision (Perkin Elmer) plate reader at an excitation wavelength of […] and emission/detection wavelength of […]. To determine compound IC50 the data for HPEand ZPEcontrol wells were first analyzed and the mean, standard deviation and Z prime calculated for each plate. The test compound data were converted into percent effect, using the ZPE and HPE controls as 0% and 100% activity, respectively. The equation used for converting each well reading into percent effect was:
IC50 was then calculated and reported as the midpoint in the percent effect curve in molar units and the values are reported under the Cell Based PCSK9 IC50 (μM) column header within Table 2 Biological Data. […]
In general terms: Alpha assays give light when donor and acceptor beads are brought close together.

For `Cc1cccnc1N(C(=O)c1ccc(-c2cnn(C)c2-c2nn[nH]n2)cn1)[C@@H]1CCCNC1` [Example 1, N-(3-methylpyridin-2-yl)-5-[1-methyl-5-(2H-tetrazol-5-yl)-1H-pyrazol-4-yl]-N-[(3R)-piperidin-3-yl]pyridine-2-carboxamide], the pIC50 (in general, −log10 of the IC50, conventionally taken in molar units) is 5.24 in experiment [1] and < 4.70 in experiment [2].
With `CCOC(=O)O[C@H](C)n1nnnc1-c1c(-c2ccc(C(=O)N(c3ncccc3Cl)[C@@H]3CCCNC3)cc2)cnn1C` [Example 12, ethyl (R)-1-{5-[1-methyl-4-(4-{(3-chloropyridin-2-yl)[(3R)-piperidin-3-yl]carbamoyl}phenyl)-1H-pyrazol-5-yl]-1H-tetrazol-1-yl}ethyl carbonate], the negative-log IC50 (pIC50) in experiment [1] is 4.81; in experiment [2] it was 4.76.
With `Cc1cccnc1N(C(=O)c1ccc(-c2cnn(C)c2-c2nn[nH]n2)c(F)c1)[C@@H]1CCCNC1` [Example 4, N-(3-methylpyridin-2-yl)-3-fluoro-4-[1-methyl-5-(2H-tetrazol-5-yl)-1H-pyrazol-4-yl]-N-[(3R)-piperidin-3-yl]benzamide], the negative logarithm of the IC50 (pIC50) was 4.82 in experiment [1] and < 4.70 in experiment [2].
`Cn1ncc(-c2ccc(C(=O)N(c3ncccc3Cl)[C@@H]3CCCNC3)nc2)c1-c1nn[nH]n1` [Example 2, N-(3-chloropyridin-2-yl)-5-[1-methyl-5-(2H-tetrazol-5-yl)-1H-pyrazol-4-yl]-N-[(3R)-piperidin-3-yl]pyridine-2-carboxamide]: the pIC50 was 4.98 in experiment [1] and < 4.70 in experiment [2].
